Source: patent US20040220086A1, “Methods and materials for targeting and affecting selected cells” (priority 2001, published 2004)

Assays:
[1] = cited from earlier work
NADH-oxidase = details: plasma membrane redox enzyme; cited from earlier work
[2] = tested on: drug-resistant HL60 cells; details: cited from earlier work
metastatic sarcoma = details: person, 2000 as printed
Experimental: This concerns a person with metastatic disease from a sarcoma of their right atrium who was treated beginning August, 2000 by using conventional protocols.

[3] = tested on: normal or transferrin receptor-negative cells; details: cited from earlier work
leukemic cells = details: cells from peripheral blood and marrow of leukemia patients; cited from earlier work
[4] = tested on: leukemic cells in peripheral blood; details: cited from earlier work
human mesothelioma cells = details: cited from earlier work
[5] = tested on: drug-resistant K562 cells; details: cited from earlier work
[6] = nude mice; cited from earlier work

human transferrin-chlorambucil conjugates: human transferrin conjugated to chlorambucil, reference 51
survival of treated mice [1]: survived
toxicity compared with free chlorambucil ([1]; mice): less toxic

COc1cccc2c1C(=O)c1c(O)c3c(c(O)c1C2=O)C[C@@](O)(C(=O)CO)C[C@@H]3O[C@H]1C[C@H](N)[C@H](O)[C@H](C)O1 [doxorubicin, reference compound]
inhibition of NADH-oxidase (NADH-oxidase): efficient inhibitor

O=C(O)CCCc1ccc(N(CCCl)CCCl)cc1 [chlorambucil]
survival of treated mice [1]: died

transferrin-doxorubicin conjugates
killing of cells resistant to doxorubicin [2]: effective in killing
radiological evidence of tumor (metastatic sarcoma; by January): no radiological evidence of tumor
metastatic lesions of the lungs (metastatic sarcoma; treatment begun November 2000, by January): substantially cleared
binding to cells [3]: do not bind
inhibition of NADH-oxidase (NADH-oxidase): inhibit
selective killing of leukemic cells (leukemic cells): kill selectively
decrease of number of leukemic cells in peripheral blood ([4]; 7 patients, within 10-days following therapy): 86%
extension of disease by bone marrow biopsies before and after treatment ([4]; acute leukemia patients): no extension of disease
toxic effects ([4]; seven acute leukemia patients, 1 mg/day intravenously for 5 days): no toxic effects
survival compared with free doxorubicin (human mesothelioma cells; nude mice bearing drug-resistant human tumors): survive longer
life prolongation compared to animals treated only with doxorubicin (human mesothelioma cells; nude mice, human mesothelioma cells): significantly prolonged life
killing of cells resistant to doxorubicin [5]: effective in killing

B1: neocarzinostatin (protein, UniProt P0A3R9 35-147, looked up)
Neocarzinostatin: AAPTATVTPSSGLSDGTVVKVAGAGLQAGTAYDVGQCAWVDTGVLACNPADFSSVTADANGSASTSLTVRRSFEGFLFDGTRWGTVDCTTAACQVGLSDAAGNGPEGVAISFN
modifications: with enediyne chromophore
half-life [6]: 7 min
